From US20260120814A1, “SYSTEMS, METHODS, AND DEVICES FOR PREDICTING PHARMACOKINETIC INFLUENCES ON KETOGENESIS FOLLOWING ADMINISTRATION OF TRICAPRILIN” (CERECIN INC., priority 2022, published 2026)
Values after ≈ are worked out from the molar mass of the structure shown.

Experiments:
[1] = parameters: species or system humans; conditions: human, in vivo
Source text: To estimate the parameters involved in the distribution, metabolism, and elimination of the free fatty acid (such as octanoic acid), reliable data sources can be identified for generating a training data set to describe plasma pharmacokinetics after intravenous administration of either free fatty acids (such as octanoic acid) or ketones. Pharmacokinetic data 120 related to the MCT (such as tricaprilin) and its metabolites in humans, which can be included in the training data 122 and/or used by a validation system 124 of the biopharmaceutics modeling system, is summarized in Table 2:
In some examples, ketone plasma concentration can be quantified following an intravenous bolus injection of sodium acetoacetate (n=12). Acetoacetate and D-f3-hydroxybutyrate (n=6), two main components of plasma ketones, can also be quantified upon intravenous infusion of D-f3-hydroxybutyrate at three different doses. Blood free fatty acid (such as octanoic acid) concentration can be measured upon peroral administration of the free fatty acid (e.g, octanoic acid) at five different doses to a patient population (n=3 per dose). This pharmacokinetic data 120 can be analyzed using PKanalix 2020R1 (e.g., Lixoft, Antony, France). These injections, infusions, and/or consumptions of the doses by a target patient can be provided to the PBB model 102 (e.g., as the patient data 105). […]

[2] = PBB model population parameters fitted to the phase I clinical trial; parameters: species or system humans; conditions: population parameter, after peroral AC-SD-03
Source text: In some scenarios the PBB model 102 can be written in the Mixtran programming language and executed using Monolix 2020R1 (e.g., Antony, France). The initial parameters and fixed-parameter ranges (e.g., such as those shown in Table 1 and/or the model inputs 106) can be obtained (e.g., from experimentation data and/or literature data).
In the following, population parameters can be obtained for the target population treated with a MCT formulation (e.g., AC-SD-03) using the Stochastic Approximation Expectation-Maximization (SAEM) algorithm. The population parameters can be considered to be log-normally distributed. Additionally, the estimation tasks of the empirical Bayes estimates (EBEs) and the conditional distribution can be performed to calculate the individual predictions and give the uncertainty of the individual parameters and the data for each individual, respectively. The individual clinical data 124 for the free fatty acid (e.g., octanoic acid) and ketones obtained from the pharmacokinetic study can be used for model validation. For instance, the accuracy of the prediction can be assessed by calculating the relative mean absolute prediction error (MAPE, %) using the following equation: […]
In some scenarios, considering that all population parameters can be within the initial ranges and prediction errors can remain at a low level, initial values (Table 1) can provide an estimate of the physiological and formulation-related influences. This leads to the following conclusions. Once tricaprilin reaches the small intestine, with a rate of 1.7 h^1, the absorption of fatty acids can become the rate-limiting step. Also, there can be more significant fluctuations in the absorption rate between different individuals as compared to the much faster lipolysis (4.6 h-1) and ketogenesis (2.6 h^1). The conversion of octanoic acid in the liver can play a minor role in the availability of the active form of tricaprilin. […] These observations can be systematically evaluated in the PPSA, and/or can be provided to the PBB model 102 as model inputs 106 or as part of a validation process.

[3] = cited from earlier work
[4] = Phase I clinical pharmacokinetic study of AC-SD-03; format: in vivo, healthy male (Caucasian and Chinese) volunteers; conditions: human
Protocol: A clinical pharmacokinetic study can be conducted (e.g., to generate the model inputs 106) with the MCT formulation. For example, a clinical pharmacokinetic study was conducted on the tricaprilin product AC-SD-03, approved by the local Institutional Review Board and carried out in compliance with the Good Clinical Practice guidelines of the International Conference of Harmonization (ICH-GCP). It was an open-label, randomized 2-way crossover study. Twenty healthy male (Caucasian and Chinese) volunteers in an age range of 18-50 years were enrolled. All subjects had undergone a supervised overnight fast of at least 8 h until 1 h before their scheduled morning dose. The breakfast consisting of 2 pieces of toast with butter, 2 strips of bacon, 2 scrambled eggs, 113 g of hash browns, and 240 mL of whole milk was standardized for all subjects. […] An additional 60 ml of water was used to rinse the dosing cup and administered to the subjects. Water was only restricted 1 h before and 1 h after drug administration, but was allowed ad libitum at all other times. Food and other fluid intake was restricted throughout the confinement period. Upon peroral administration of a single dose of the formulation, the blood tricaprilin, octanoic acid, and ketone body concentrations were quantified. For tricaprilin, blood samples were collected at 0, 1.5, 2.0, 2.5, and 8 h. […]

[5] = Estimated absorption of undigested tricaprilin into blood circulation; conditions: during the first 4 hours
Protocol: As a next step, the digestion of the MCT formulation (such as AC-SD-03) in vitro can be measured. The formulation can be exposed to a gastric medium followed by lipolysis in a medium simulating intestinal conditions. The latter can result in the liberation of fatty acids expressed as the percentage of digested free fatty acid (e.g., tricaprilin), as shown at the graph 306. For each mole of tricaprilin, three moles of titratable fatty acids can be released. Within the first 5 min, 40±3% of tricaprilin can be converted to octanoic acid, followed by a gradual reduction in the digestion rate. After 15 min, the digestion profile plateaued at 83±4%. Assuming rapid absorption from the intestine, the digestion rate (kd) and extent (F) of lipolysis are mainly responsible for the bioavailability of octanoic acid. […] On a side note, there can be a certain probability that undigested tricaprilin can be absorbed into blood circulation as well. However, one estimated rate can be […] for this process. This corresponds to less than 0.5% of the total dose during the first 4 hours. […] Metabolic processes such as the hepatic conversion of tricaprilin would generally result in the formation of octanoic acid, subsequently converted to ketone bodies.

VOA, volume of distribution of octanoic acid [1] [L]	absorption rate constant (ka) [1] [h⁻¹]	absorption rate of fatty acids [2] [h^1]	ketogenesis rate [2] [h^1]	lipolysis rate [2] [h⁻¹]	tricaprilin found in blood circulation ([4]; phase I clinical trial, peroral AC-SD-03)	Cmax ([4]; male, blood, oral, 50 g AC-SD-03 (42,500 μmol tricaprilin), read-out: Cmax of undigested triglyceride) [nM]	fraction of total dose absorbed as undigested tricaprilin [5]	SMILES	aqueous solubility [3] [mg/L]
40.55 to 163.26	0.23 to 3.16	1.7	2.6					CCCCCCCC(=O)O [octanoic acid]	
				4.6	negligible amounts	1050	less than 0.5%	CCCCCCCC(=O)OCC(COC(=O)CCCCCCC)OC(=O)CCCCCCC [Tricaprilin]	0.4 (≈ 0.85 µM)
